According to US20240059740A1, “CYCLIC PEPTIDES AND USES THEREOF” (PRE[…] INC., priority 2020, published 2024):
Residues, ends and D or L forms follow the SMILES beside them.

What was measured:
Assay type in all cases: cell-based, human
CDH-2 (N-cadherin) mRNA = assay: Real time RT-PCR, CDH-2 (N-cadherin) mRNA expression
Text: The real-time reverse transcription polymerase chain reaction (RT-PCR) uses fluorescent reporter molecules to monitor the production of amplification products during each cycle of the PCR reaction. This combines the nucleic acid amplification and detection steps into one homogeneous assay and use of appropriate chemistries and data analysis eliminates the need for Southern blotting or DNA sequencing for amplicon identification. Its simplicity, specificity and sensitivity, together with its potential for high throughput and the ongoing introduction of new chemistries, more reliable instrumentation and improved protocols, has made real-time RT-PCR the benchmark technology for the detection and/or comparison of RNA levels.’
In order to detect and quantify the expression of specific genes at mRNA level, real-time reverse transcriptase polymerase chain reaction (Real time RT-PCR) was performed. Total RNA of samples was isolated and purified using the PureLink® RNA Mini Kit (Life technologies). The concentration of total RNA was detected by NanoDrop 2000 Spectrophotometer (Thermo Scientific). The total RNA (2000 ng) was reverse transcribed using the High-Capacity cDNA Reverse Transcription Kit (Applied Biosystems™).
The primers of target genes were TaqMan™ Gene Expression Assay for human PLAU (Hs01547054_m1), MMP-2 (Hs01548727_m1), MMP-9 (Hs00957562_m1), Snail-1 (Hs00195591_m1), Snail-2 (Hs00161904_m1), N-cadherin (Hs00983056_m1) and Twist (Hs01675818_s1). Relative quantification was done by reference to 18S ribosomal RNA (18S rRNA) and analysed using the comparative critical threshold (Ct) method
The mRNA expression of MMPs was measured using qRT-PCR. This was tested three independent times; the results are shown in Tables 9, 10 and 11 for U251, U87 cells and O81024 cells respectively. Results are reported as percent of the control cells (no treatment). Both MMP-2 and uPA were decreased in U251 by SEQ ID NO.1.
Epithelial-mesenchymal transition (EMT) is the process by which epithelial cells acquire a migratory (metastatic) phenotype and so EMT is associated with cancer metastasis, cancer cell stemness, chemoresistance and immune resistance. Therefore, the determination of the mRNA expression of EMT markers is a valuable tool to evaluate invasion potential of cancer cells.
The ‘Snail’ superfamily is involved in cell differentiation and survival, two processes central in cancer research. Snail-1 has a pivotal role in the regulation of epithelial-mesenchymal transition (EMT) and Snail-1 expression is associated with poor prognosis in metastatic cancer, and tumours with elevated Snail-1 expression are harder to treat. […]

081024 cells = assay: BME cell invasion assay, 081024; details: 24 h
Experimental: (§1) To assess whether the ability of SEQ ID NO.1 to inhibit MMP-2 activity and, to a lesser extent, reduce the production of matrix proteinases and downregulate the expression of EMT markers, was of functional consequence in reducing the invasiveness of the GBM cells, the ability of the peptide was tested at the concentrations of 1, 10 and 100 μM (none of which are toxic to cells) to inhibit invasion of the GBM cells through a basement membrane. This assay, described in more detail below, is an in vitro surrogate for measurement of the in vivo invasion by tumour cells of their environment.
(§2) The cell invasion assay employs a simplified Boyden chamber-like design that consists of two chambers separated by a filter (an 8 μm polycarbonate (PC) membrane) coated with basement membrane or different extracellular matrix components. The cell suspension is placed in the top chamber and incubated in the presence of test media containing specific chemo-attractants in the bottom chamber. Cells migrate from the top chamber to the bottom of the filter by degrading the coating over the filter pores. Detection of cell invasion is quantified using Calcein AM. Cell dissociation/Calcein AM solution is placed in the bottom chamber to dissociate the migrating cells from the filter. Calcein AM is internalized by the cells, and intracellular-esterases cleave the aceto-methylester (AM) moiety. Free Calcein fluoresces brightly and is used to quantitate the number of cells that have invaded or migrated by comparison with a standard curve (In Vitro Technologies Pty Ltd, (https://lifescience.invitro.com.au/brands/r-and-d-systems/).
(§3) The filter was coated with PathClear® growth factor reduced BME. The selected peptides were applied to the cells in both upper and lower wells to make sure the concentration of peptides were the same and the chemoattractant was serum at a concentration of 2% (for adherent U87 & U251 cells) or growth factor mix required in the medium (for non- adherent, 081024 oncospheres).
(§4) Cell invasion was determined using CultureCoat® 96 Well Medium BME Cell Invasion assay. Briefly, the cells were pre-starved 24 h before harvest. Then seeding 25,000 per well of cell in the upper chamber with serum free medium together different concentration of peptide. The bottom chamber also added different concentration of peptides with 2% (V/V) serum for GBM adherent cells or growth factor mix for neurosphere cells as chemoattractant. After 24 h incubation, the invading cells were measured by Calcein AM and calculated based on standard curve.
(§5) The results are shown in Table 12, the results are expressed as % inhibition.

U87 cells = assay: BME cell invasion assay, U87; details: 24 h
Experimental: as §1, §2, §3, §4, §5

CC(C)C[C@@H]1NC(=O)[C@H](C)NC(=O)[C@@H](NC(=O)[C@@H]2CCCN2C(=O)[C@@H](N)CC(C)C)CSSC(C)(C)CNC(=O)CC[C@@H](C(=O)N[C@@H](CCCNC(=N)N)C(N)=O)NC(=O)[C@H](CC(=O)O)NC(=O)[C@H](CC(N)=O)NC1=O [SEQ ID NO: 1, Leu-Pro-c(SSA*-Ala-Leu-Asn-Asp-Glu)-Arg-NH2] (HELM PEPTIDE1{L.P.C.A.L.N.D.E.R.[am]}|CHEM1{[CC(C)(CN[*:2])S[*:1]]}$PEPTIDE1,CHEM1,3:R3-1:R1|PEPTIDE1,CHEM1,8:R3-1:R2$$$V2.0; N-terminus assumed)
mRNA expression, CDH-2 (CDH-2 (N-cadherin) mRNA; 081024 cells, baseline expression level = 1): 0.91 | mRNA expression, CDH-2 (CDH-2 (N-cadherin) mRNA; U87 cells, baseline expression level = 1): 0.98 | mRNA expression, CDH-2 (CDH-2 (N-cadherin) mRNA; U251 cells, relative to control (no treatment)): 0.82 | mRNA expression, CDH-2 (in words) (CDH-2 (N-cadherin) mRNA; cell line not specified): non-statistical decrease in expression | Invasion Inhibition Index (%) (081024 cells; 1 μM, listed as SEQ ID NO. 1): 39.9% | Invasion Inhibition Index (%) (081024 cells; 1 μM, listed as SEQ ID NO.1): fairly comparable to that of Chlorotoxin | Invasion Inhibition Index (%) (081024 cells; 10 μM): 50.8% | Invasion Inhibition Index (%) (081024 cells; 100 μM): 58.3% | Invasion Inhibition Index (%) (U87 cells; 1 μM, listed as SEQ ID NO. 1): 7.6% | Invasion Inhibition Index (%) (U87 cells; 1 μM, listed as SEQ ID NO.1): lower inhibition index compared to Chlorotoxin | Invasion Inhibition Index (%) (U87 cells; 10 μM): 15.5% | Invasion Inhibition Index (%) (U87 cells; 100 μM): 24.3%
